In ChEMBL document CHEMBL3046916, “ROLE OF INTERMEDIARY BIOMARKERS IN DETERMINING THE ANTICANCER EFFICACY OF MARINE COMPOUNDS” (2004):
Active and inactive are the calls of the source. The calls are words filed in the database; no cut-off is given here.

Tests used:
Format in all cases: functional
[1] = system: MCF7; experiment: Inhibition of residual DNA repair ability in Homo sapiens (human) MCF7 cells assessed as plaque forming unit at 50 uM followed by irradiated with 50 Jm'-2 of UV after 24 hr by host cell reactivation assay relative to control
[2] = system: MCF7; experiment: Increase of benzo[alpha]pyrene-DNA adduct formation in Homo sapiens (human) MCF7 cells at 50 uM treated for 24 hr before benzo[alpha]pyrene addition measured after 24 hr by 32P-postlabeling technique relative to control
[3] = system: MCF7; experiment: Inhibition of residual DNA repair ability in Homo sapiens (human) MCF7 cells assessed as plaque forming unit at 50 uM followed by irradiated with 200 Jm'-2 of UV after 24 hr by host cell reactivation assay relative to control
[4] = system: MCF7; experiment: Decrease of p16 protein expression in Homo sapiens (human) MCF7 cells at 50 uM followed by irradiated with UV after 4 hr by Western blot analysis relative to control; design: scale not given: the % may be the effect or the level left
[5] = system: MCF7; experiment: Decrease of p53 protein expression in Homo sapiens (human) MCF7 cells at 50 uM followed by irradiated with UV after 4 hr by Western blot analysis relative to control; design: scale not given: the % may be the effect or the level left
[6] = system: MCF7; experiment: Inhibition of residual DNA repair ability in Homo sapiens (human) MCF7 cells assessed as plaque forming unit at 50 uM followed by irradiated with 100 Jm'-2 of UV after 24 hr by host cell reactivation assay relative to control
[7] = system: MCF7; experiment: Decrease of p21 protein expression in Homo sapiens (human) MCF7 cells at 50 uM followed by irradiated with UV after 4 hr by Western blot analysis relative to control; design: scale not given: the % may be the effect or the level left
[8] = system: MCF7; experiment: Increase of benzo[alpha]pyrene-DNA adduct formation in Homo sapiens (human) MCF7 cells at 100 uM treated for 24 hr before benzo[alpha]pyrene addition measured after 24 hr by 32P-postlabeling technique relative to control

O[C@]12C=C(c3nccc4c3[nH]c3ccccc34)[C@@H]3CCN(CCCC/C=C\CC1)C[C@@]31C[C@@H]3/C=C\CCCCN3[C@H]12 [MANZAMINE A]
%PFU [1]: 46%
fold change (FC) [2]: 2
%PFU [3]: 9%
Activity [4]: 89%
Activity [5]: 63%
%PFU [6]: 15%
Activity [7]: 80%

CC1=C2CC/C(C)=C/CC[C@]3(C)O[C@H]3CC/C(C)=C/[C@@H]2OC1=O [SARCOPHINE]
%PFU [1]: 69%
Activity [2]: inactive
%PFU [3]: 24%
Activity [4]: 96%
fold change (FC) [8]: 2
Activity [5]: 90%
%PFU [6]: 38%
Activity [7]: 120%
